# Measurements taken from US7364882B1, “Enzymatic reduction of a nitrile containing compound to the corresponding amine” (State of Oregon Acting by and Through the State Board of …, priority 2004, dated 2008).
# Where two headings read alike, the source gives them in different places.
# Tests used:
# Type in all cases: biochemical
# QueF = QueF nitrile oxido-reductase assay, continuous UV monitoring of NADPH oxidation (preQ0 to preQ1)
# Procedure: PreQ0 oxido-reductase activity was determined using a number of redox cofactors, and activity was observed only in the presence of NADPH. […] […] Assays were run from 30 seconds to 2 hours.
# To confirm that preQ1 was the reduced product as predicted, reaction assays were analyzed by reverse-phase HPLC (Bondclone 10 C-18, 300×3.9 mm) with a mobile phase of 20 mM ammonium actetate (pH 6.0) and methanol. With a flow-rate of 1 mL/min a series of linear gradients were developed from 20 mM ammonium acetate (pH 6.0) (buffer U) to 75% methanol in buffer U (buffer V) in the following manner (beginning time and ending time and linear increase to % V): 0-20.0 min, 0% V; 20.0-30.0 min, 8% V; 30.0-40.0 min, 20% V; 40.0-42.0 min, 100% V; 42.0-50.0 min, 100% V; and 50.0.0-52.0 min, 0% V. PreQ0 and preQ1 were detected with a diode array detector.
# [1] = GTP cyclohydrolase activity assays (radiochemical [14C]formic acid release, fluorescence, HPLC); conditions: three assays, large screen of conditions (cyclohydrolase I, II, III)
# From the text: GTP cyclohydrolase activity was investigated using three different assays (radiochemical based release of [^14C]formic acid, fluorescence, or HPLC analysis of reactions) and a large screen of assay conditions (including those for cyclohydrolase I, II, and III activity).
# [2] = standard nitrile oxido-reductase assay of B. subtilis QueF mutants; conditions: Glu98 substitution in SEQ ID NO: 2
# Procedure: Assays were typically carried out at 30° C. in a final volume of 80 μL in a solution of 50 mM HEPES (pH 7.5), 50 mM KCl, 1 mM DTT, 2-150 μM NADPH, 0.2-150 μM preQ0, and 10-1000 nM QueF. Assays were run from 30 seconds to 2 hours.
molecule,measurement,setting,value
"NCC1C=Nc2nc(N)[nH]c(=O)c21 (stereo not shown) [preQ1, 7-aminomethyl-7-deazaguanine]",preQ0 generated when the reaction was run in reverse,QueF; reverse reaction with preQ1 and NADP+,< 1%
"N#Cc1c[nH]c2nc(N)[nH]c(=O)c12 [preQ0, 7-cyano-7-deazaguanine]",Km,QueF; read-out: KM for preQ0,< 1 µM
same,kcat,"QueF; variable NADPH and constant, saturating preQ0",0.01 s⁻¹
reduced form of nicotinamide adenine dinucleotide phosphate [NADPH],Km,"QueF; variable NADPH and constant, saturating preQ0, read-out: KM for NADPH",36 µM
"YqcD: E. coli QueF Class II protein, SEQ ID NO: 4 (protein) MSSYANHQALAGLTLGKSTDYRDTYDASLLQGVPRSLNRDPLGLKADNLPFHGTDIWTLYELSWLNAKGLPQVAVGHVELDYTSVNLIESKSFKLYLNSFNQTRFNNWDEVRQTLERDLSTCAQGKISVALYRLDELEGQPIGHFNGTCIDDQDITIDNYEFTTDYLENATCGEKVVEETLVSHLLKSNCLITHQPDWGSLQIQYRGRQIDREKLLRYLVSFRHHNEFHEQCVERIFNDLLRFCQPEKLSVYARYTRRGGLDINPWRSNSDFVPSTTRLVRQ",GTP cyclohydrolase activity,[1],no GTP cyclohydrolase activity was detected
E98M: QueF with substitution of Glu98 in SEQ ID NO: 2 to Met (protein) MTTRKESELEGVTLLGNQGTNYLFEYAPDVLESFPNKHVNRDYFVKFNCPEFTSLCPKTGQPDFATIYISYIPDEKMVESKSLKLYLFSFRNHGDFHMDCMNIIMNDLIELMDPRYIEVWGKFTPRGGISIDPYTNYGKPGTKYEKMAEYRMMNHDLYPETIDNR,ability to reduce PreQ0,[2],significantly decreased
"YkvM: B. subtilis QueF Class I protein, SEQ ID NO: 2 (protein) MTTRKESELEGVTLLGNQGTNYLFEYAPDVLESFPNKHVNRDYFVKFNCPEFTSLCPKTGQPDFATIYISYIPDEKMVESKSLKLYLFSFRNHGDFHEDCMNIIMNDLIELMDPRYIEVWGKFTPRGGISIDPYTNYGKPGTKYEKMAEYRMMNHDLYPETIDNR",GTP cyclohydrolase activity,[1],no GTP cyclohydrolase activity was detected
